From US20120238549A1, “Nuclear Hormone Receptor Modulators” (ABBOTT LABORATORIES, priority 2011, published 2012)

molecular target: T1, Glucocorticoid Receptor (GR) (Homo sapiens, UniProt P04150); assay: GR Florescence Polarization Assay (PolarScreen Glucocorticoid Receptor Competitor Assay, Red); details: Fluorescense polarization binding ranges; competition with fluorescent glucocorticoid, incubated overnight at 4° C.
T1 construct: purchased Invitrogen P2893
T1 sequence (P04150 1-777): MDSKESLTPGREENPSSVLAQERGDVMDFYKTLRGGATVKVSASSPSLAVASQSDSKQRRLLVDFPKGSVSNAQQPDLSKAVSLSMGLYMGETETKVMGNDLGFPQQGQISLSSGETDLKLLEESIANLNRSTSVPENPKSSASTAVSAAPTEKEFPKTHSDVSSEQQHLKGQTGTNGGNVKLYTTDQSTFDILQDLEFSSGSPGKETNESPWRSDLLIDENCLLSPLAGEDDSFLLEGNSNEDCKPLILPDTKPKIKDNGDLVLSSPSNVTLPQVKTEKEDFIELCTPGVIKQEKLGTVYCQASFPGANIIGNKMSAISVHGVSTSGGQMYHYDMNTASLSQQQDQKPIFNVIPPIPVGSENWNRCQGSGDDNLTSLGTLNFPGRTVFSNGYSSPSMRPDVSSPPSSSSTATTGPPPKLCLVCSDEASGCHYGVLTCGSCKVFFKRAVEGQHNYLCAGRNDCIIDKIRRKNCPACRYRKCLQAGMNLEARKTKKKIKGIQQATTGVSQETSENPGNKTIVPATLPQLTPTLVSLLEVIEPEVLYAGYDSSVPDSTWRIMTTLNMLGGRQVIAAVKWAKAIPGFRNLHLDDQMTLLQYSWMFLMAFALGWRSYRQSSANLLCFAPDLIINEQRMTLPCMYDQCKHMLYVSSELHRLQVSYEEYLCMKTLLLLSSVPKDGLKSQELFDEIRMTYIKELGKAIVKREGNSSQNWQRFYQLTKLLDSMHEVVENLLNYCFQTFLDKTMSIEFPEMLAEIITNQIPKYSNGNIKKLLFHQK
Method in brief: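 Competitive fluorescence polarization using fluorescent glucocorticoid tracer and human GR in kit buffer. Compounds serially diluted 1:4 in DMSO, incubated with tracer and GR overnight at 4 °C before polarization read.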

`CC[C@@]1(O)CC[C@@]2(Cc3ccccc3)c3ccc(C(=O)Nc4cnccc4C)cc3CCC[C@H]2C1` [Example 71] and `CC[C@@]1(O)CC[C@@]2(Cc3ccccc3)c3ccc(C(=O)Nc4ncccc4C)cc3CCC[C@H]2C1` [Example 73] cannot be ordered by IC50: < 0.1 µM for the first, < 0.1 µM for the second.

`CC[C@@]1(O)CC[C@@]2(Cc3ccccc3)c3ccc(C(=O)Nc4ccc(C)nc4C)cc3CCC[C@H]2C1` [Example 72] and `CC[C@@]1(O)CC[C@@]2(Cc3ccccc3)c3ccc(C(=O)Nc4ccc(-c5ccn[nH]5)nc4C)cc3CCC[C@H]2C1` [Example 86, (7aS,9R,11aS)-11a-Benzyl-9-ethyl-9-hydroxy-6,7,7a,8,9,10,11,11a-octahydro-5H-dibenzo[a,c]cycloheptene-3-carboxylic acid [2-methyl-6-(2H-pyrazol-3-yl)-pyridin-3-yl]-amide] cannot be ordered by IC50: < 0.1 µM for the first, < 0.1 µM for the second.

First: CC[C@@]1(O)CC[C@@]2(Cc3ccccc3)c3ccc(C(=O)Nc4nncs4)cc3CCC[C@H]2C1 [Example 74]
Second: CC[C@@]1(O)CC[C@@]2(Cc3ccccc3)c3ccc(C(=O)Nc4ccnn4C)cc3CCC[C@H]2C1 [Example 75]
The IC50 of the first is higher: 0.1 to 1 µM for the first, < 0.1 µM for the second. The second is the more potent here.

`CC[C@@]1(O)CC[C@@]2(Cc3ccccc3)c3ccc(C(=O)Nc4cc(C)nn4C)cc3CCC[C@H]2C1` [Example 76] and `CC[C@@]1(O)CC[C@@]2(Cc3ccccc3)c3ccc(C(=O)Nc4cc(C)[nH]n4)cc3CCC[C@H]2C1` [Example 79] cannot be ordered by IC50: < 0.1 µM for the first, < 0.1 µM for the second.

`CC[C@@]1(O)CC[C@@]2(Cc3ccccc3)c3ccc(C(=O)Nc4nnnn4C)cc3CCC[C@H]2C1` [Example 78] and `CC[C@@]1(O)CC[C@@]2(Cc3ccccc3)c3ccc(C(=O)NC4=NC(=O)CN4C)cc3CCC[C@H]2C1` [Example 85] cannot be ordered by IC50: < 0.1 µM for the first, < 0.1 µM for the second.

Compared with `CC[C@@]1(O)CC[C@@]2(Cc3ccccc3)c3ccc(C(=O)NCc4cccnc4C)cc3CCC[C@H]2C1` [Example 83, (7aS,9R,11aS)-11a-Benzyl-9-ethyl-9-hydroxy-6,7,7a,8,9,10,11,11a-octahydro-5H-dibenzo[a,c]cycloheptene-3-carboxylic acid (2-methyl-pyridin-3-ylmethyl)-amide], `CC[C@@]1(O)CC[C@@]2(Cc3ccccc3)c3ccc(C(=O)N(C)c4cccnc4C)cc3CCC[C@H]2C1` [Example 89, (7aS,9R,11aS)-11a-Benzyl-9-ethyl-9-hydroxy-6,7,7a,8,9,10,11,11a-octahydro-5H-dibenzo[a,c]cycloheptene-3-carboxylic acid methyl-(2-methyl-pyridin-3-yl)-amide] is higher in IC50: < 0.1 µM for the first, 0.1 to 1 µM for the second. The first is the more potent here.

Compared with `CC[C@@]1(O)CC[C@@]2(Cc3ccccc3)c3ccc(C(=O)NCCN4CCOCC4)cc3CCC[C@H]2C1` [Example 84], `CCOC[C@@]1(O)CC[C@@]2(Cc3ccccc3)c3ccc(C(=O)Nc4cccnc4C)cc3CCC[C@H]2C1` [Example 93] is lower in IC50: > 10 µM for the first, < 0.1 µM for the second.

`CC[C@@]1(O)CC[C@@]2(Cc3ccccc3)c3ccc(C(=O)Nc4ccc(-c5ccn[nH]5)nc4C)cc3CCC[C@H]2C1` [Example 87, (7aS,9R,11aS)-11a-Benzyl-9-ethyl-9-hydroxy-6,7,7a,8,9,10,11,11a-octahydro-5H-dibenzo[a,c]cycloheptene-3-carboxylic acid [2-methyl-6-(2H-pyrazol-3-yl)-pyridin-3-yl]-amide] and `CC[C@@]1(O)CC[C@@]2(Cc3ccccc3)c3ccc(C(=O)Nc4ccc(-c5cn[nH]c5)nc4C)cc3CCC[C@H]2C1` [Example 88] cannot be ordered by IC50: < 0.1 µM for the first, < 0.1 µM for the second.

Compared with `CCCOC[C@@]1(O)CC[C@@]2(Cc3ccccc3)c3ccc(C(=O)Nc4cccnc4C)cc3CCC[C@H]2C1` [Example 98], `CCCOC[C@]1(O)CC[C@]2(Cc3ccccc3)c3ccc(C(=O)Nc4cccnc4C)cc3CCC[C@@H]2C1` [Example 99] is higher in IC50: < 0.1 µM for the first, 1 to 10 µM for the second. The first is the more potent here.

First: Cc1ncccc1NC(=O)c1ccc2c(c1)CCC[C@@H]1C[C@@](O)(C(F)(F)F)CC[C@@]21Cc1ccccc1 [Example 106, (7aR,9R,11aS)-11a-Benzyl-9-hydroxy-9-trifluoromethyl-6,7,7a,8,9,10,11,11a-octahydro-5H-dibenzo[a,c]cycloheptene-3-carboxylic acid (2-methyl-pyridin-3-yl)-amide]
Second: Cc1ncccc1NC(=O)c1ccc2c(c1)CCC[C@H]1C[C@](O)(C(F)(F)F)CC[C@]21Cc1ccccc1 [Example 107, (7aS,9S,11aR)-11a-Benzyl-9-hydroxy-9-trifluoromethyl-6,7,7a,8,9,10,11,11a-octahydro-5H-dibenzo[a,c]cycloheptene-3-carboxylic acid (2-methyl-pyridin-3-yl)-amide]
The IC50 of the first is lower: < 0.1 µM for the first, 0.1 to 1 µM for the second. The first is the more potent here.

Compared with `Cc1ncccc1NC(=O)c1ccc2c(c1)CN(C)C[C@H]1CC(=O)CC[C@@]21Cc1ccccc1` [Example 108, (4aS,11bS)-11b-Benzyl-6-methyl-N-(2-methylpyridin-3-yl)-3-oxo-2,3,4,4a,5,6,7,11b-octahydro-1H-dibenzo[c,e]azepine-9-carboxamide], `Cc1ncccc1NC(=O)c1ccc2c(c1)CN(C)C[C@H]1C[C@@H](O)CC[C@@]21Cc1ccccc1` [Example 109, (3S,4aS,11bS)-11b-benzyl-3-hydroxy-6-methyl-N-(2-methylpyridin-3-yl)-2,3,4,4a,5,6,7,11b-octahydro-1H-dibenzo[c,e]azepine-9-carboxamide] is higher in IC50: 1 to 10 µM for the first, > 10 µM for the second.

Compared with `Cc1ncccc1NC(=O)c1ccc2c(c1)COC(=O)[C@H]1CC(=O)CC[C@@]21Cc1ccccc1` [Example 110, (7aS,11aS)-11a-Benzyl-N-(2-methylpyridin-3-yl)-7,9-dioxo-5,7,7a,8,9,10,11,11a-octahydrodibenzo[c,e]oxepine-3-carboxamide], `CC[C@@]1(O)CC[C@@]2(Cc3ccccc3)c3ccc(C(=O)Nc4cccnc4C)cc3CC(=O)C[C@H]2C1` [Example 114, (7aR,9R,11aS)-11a-Benzyl-9-ethyl-9-hydroxy-6-oxo-6,7,7a,8,9,10,11,11a-octahydro-5H-dibenzo[a,c]cycloheptene-3-carboxylic acid (2-methyl-pyridin-3-yl)-amide] is lower in IC50: > 10 µM for the first, < 0.1 µM for the second. The second is the more potent here.

Compared with `CC[C@@]1(O)CC[C@@]2(Cc3ccccc3)c3ccc(C(=O)Nc4cccnc4C)cc3COC[C@H]2C1` [Example 111, (7aS,9R,11aS)-11a-Benzyl-9-ethyl-9-hydroxy-N-(2-methylpyridin-3-yl)-5,7,7a,8,9,10,11,11a-octahydrodibenzo[c,e]oxepine-3-carboxamide], `CC[C@@]1(O)CC[C@@]2(Cc3ccccc3)c3ccc(C(=O)Nc4cccnc4C)cc3C(=O)OC[C@H]2C1` [Example 112, (7aS,9R,11aS)-11a-Benzyl-9-ethyl-9-hydroxy-N-(2-methylpyridin-3-yl)-5-oxo-5,7,7a,8,9,10,11,11a-octahydrodibenzo[c,e]oxepine-3-carboxamide] is higher in IC50: < 0.1 µM for the first, 0.1 to 1 µM for the second. The first is the more potent here.

First: CC[C@@]1(O)CC[C@@]2(Cc3ccccc3)c3ccc(C(=O)Nc4cccnc4C)cc3C(=O)N(C)C[C@@H]2C1 [Example 113, (3R,4aR,11bS)-11b-Benzyl-3-ethyl-3-hydroxy-6-methyl-N-(2-methylpyridin-3-yl)-7-oxo-2,3,4,4a,5,6,7,11b-octahydro-1H-dibenzo[c,e]azepine-9-carboxamide]
Second: Cc1ncccc1NC(=O)c1ccc2c(c1)C(=O)OC[C@@H]1C[C@@](O)(C(F)(F)F)CC[C@@]21Cc1ccccc1 [Example 115, (7aR,9R,11aS)-11a-Benzyl-9-hydroxy-N-(2-methylpyridin-3-yl)-5-oxo-9-(trifluoromethyl)-5,7,7a,8,9,10,11,11a-octahydrodibenzo[c,e]oxepine-3-carboxamide]
The IC50 of the first is higher: 1 to 10 µM for the first, 0.1 to 1 µM for the second.
